Laboratory results: US8163909B2, “Substituted hydroxyethyl amine compounds as beta-secretase modulators and methods of use” (Amgen Inc., priority 2007, dated 2012)
pIC50: −log10 of the molar value. Where two headings read alike, the source gives them in different places.

Assays:
[1] = molecular target: Beta Secretase enzyme (BACE) (Homo sapiens, UniProt P56817); test: In vitro enzymatic BACE FRET (fluorescence resonance energy transfer) assay; format: biochemical; details: for IC50: IC50's in uM;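 for all read-outs here: fluorescence read after 1 h with 50 nM quenched peptide substrate spanning the BACE cleavage site, in pH 4.2 acetate buffer containing 10% DMSO and nonionic detergent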
Sequence of Beta Secretase enzyme (BACE) (P56817 46-501): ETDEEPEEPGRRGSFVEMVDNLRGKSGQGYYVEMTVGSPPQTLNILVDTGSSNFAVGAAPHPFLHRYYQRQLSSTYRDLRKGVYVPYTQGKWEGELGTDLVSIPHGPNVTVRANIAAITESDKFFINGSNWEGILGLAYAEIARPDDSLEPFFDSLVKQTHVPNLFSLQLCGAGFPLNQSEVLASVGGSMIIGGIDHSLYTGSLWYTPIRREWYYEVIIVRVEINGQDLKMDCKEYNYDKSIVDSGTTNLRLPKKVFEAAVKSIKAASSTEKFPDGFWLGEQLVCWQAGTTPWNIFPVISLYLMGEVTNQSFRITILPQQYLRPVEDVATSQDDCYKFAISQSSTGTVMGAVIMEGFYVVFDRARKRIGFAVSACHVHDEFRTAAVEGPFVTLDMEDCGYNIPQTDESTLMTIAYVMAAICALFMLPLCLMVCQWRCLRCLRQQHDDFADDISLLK

[2] = tested on: Aβ40 in conditioned medium of cells stably expressing Amyloid Precursor Protein (APP); test: In vitro BACE cell-based assay (Aβ40 in conditioned medium, sandwich ELISA); details: Homo sapiens; for IC50: IC50's in uM;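 for all read-outs here: compounds added as a dilution series, secreted peptide quantified by europium time-resolved fluorescence readout, potency fitted from percent of control versus compound concentration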
[3] = Microsomal stability assay, rat liver microsomes;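 note: rat liver microsomes (0.25 mg/mL) with about 1 µM compound plus 1 mM NADPH, pH 7.4, 37 °C for 30 min, parent left measured by LC-MS/MS against 0 min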
[4] = Microsomal stability assay, human liver microsomes;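 note: pooled human liver microsomes at 0.25 mg/mL with 1 µM compound and NADPH at 37 °C, pH 7.4, for 30 min, unchanged parent quantified by LC-MS/MS against the 0 min sample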
CYP2D6 = CYP2D6 (Homo sapiens, UniProt P10635); test: CYP2D6 inhibition assay (bufuralol, pooled human liver microsomes); details: for IC50: 2D6 IC50 (uM)
Sequence of CYP2D6 (P10635 whole entry): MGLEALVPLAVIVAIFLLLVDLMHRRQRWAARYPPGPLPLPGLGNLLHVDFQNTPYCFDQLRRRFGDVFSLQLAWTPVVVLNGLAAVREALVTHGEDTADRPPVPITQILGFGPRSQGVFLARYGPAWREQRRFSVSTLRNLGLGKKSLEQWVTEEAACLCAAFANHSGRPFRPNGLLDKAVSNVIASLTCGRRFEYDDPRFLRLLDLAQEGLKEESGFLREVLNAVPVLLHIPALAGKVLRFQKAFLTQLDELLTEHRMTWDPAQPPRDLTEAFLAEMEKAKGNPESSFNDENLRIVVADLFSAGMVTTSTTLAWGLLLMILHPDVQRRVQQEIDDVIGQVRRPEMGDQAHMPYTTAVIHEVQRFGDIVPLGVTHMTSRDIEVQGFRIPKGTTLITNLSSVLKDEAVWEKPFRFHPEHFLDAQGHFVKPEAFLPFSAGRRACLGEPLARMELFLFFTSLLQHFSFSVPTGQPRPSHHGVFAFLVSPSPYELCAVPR

[5] = BACE enzyme assay, read-out: BACE1 FRET assay
[6] = HEK293, cell-based assay, HEK cells, read-out: HEK cell assay
[7] = 2D6 IC50, CYP enzyme inhibition
[8] = HEK293, HEK cell-based assay, read-out: HEK cell assay
[9] = read-out: BACE1 FRET assay (IC50)
[10] = HEK293, HEK cells, read-out: HEK cell assay (IC50)

| IC50 [1, 5] | RLM ([3]; rat liver microsomal data) | HLM ([4]; human liver microsomal data) | pIC50 (CYP2D6; [7]) | pIC50 [1, 9] | pIC50 [2, 10] | RLM ([3]; rat liver microsomes) | HLM ([4]; human liver microsomes) | pIC50 (CYP2D6; 2D6 IC50, CYP2D6 inhibition) | Compound | also measured |
| --- | --- | --- | --- | --- | --- | --- | --- | --- | --- | --- |
| 0.005 µM | 88 µL/min/mg | 90 µL/min/mg | 5.96 | – | – | – | – | – | C#Cc1cc(C#C)cc(C[C@H](NC(=O)COC)[C@H](O)CN[C@H]2CC3(CCC3)Oc3ncc(CC(C)(C)C)cc32)c1 [compound 858] | IC50 [2, 6]: 0.147 µM |
| 0.016 µM | 157 µL/min/mg | 267 µL/min/mg | – | – | – | – | – | – | CC(C)(C)Cc1cnc2c(c1)[C@@H](NC[C@@H](O)[C@H](Cc1ccc(F)cc1)NC(=O)[C@@H]1CN(Cc3cncs3)CCO1)CC1(CCC1)O2 [compound 788] | IC50 [2, 8]: 0.013 µM; IC50 (CYP2D6; CYP enzyme inhibition): 0.6 µM |
| – | 163 µL/min/mg | 29 µL/min/mg | – | – | – | – | – | – | CO[C@H](C)C(=O)N[C@@H](Cc1cccc(F)c1)[C@H](O)CN[C@H]1CC2(CCC2)Oc2c1cc(CC(C)(C)C)nc2-c1ccncc1 [compound 533] | pIC50 [1, 5]: 7.89; pIC50 ([2]; HEK293, HEK cells, read-out: HEK cell assay): 7.36; IC50 (CYP2D6; CYP enzyme inhibition): 1.4 µM |
| 0.005 µM | 98 µL/min/mg | 37 µL/min/mg | – | – | – | – | – | – | C#Cc1cc(F)cc(C[C@H](NC(=O)[C@@H](C)OC)[C@H](O)CN[C@H]2CC3(CCC3)Oc3ncc(CC(C)(C)C)cc32)c1 [Example 834, (2R)-N-((1S,2R)-3-(((4′S)-6′-(2,2-dimethylpropyl)-3′,4′-dihydrospiro[cyclobutane-1,2′-pyrano[2,3-b]pyridin]-4′-yl)amino)-1-(3-ethynyl-5-fluorobenzyl)-2-hydroxypropyl)-2-methoxypropanamide] | IC50 [2, 8]: 0.011 µM; IC50 (CYP2D6; CYP enzyme inhibition): 2.5 µM |
| – | – | – | – | 8.00 | 8.15 | 72 µL/min/mg | 65 µL/min/mg | 5.77 | COCC(=O)N[C@@H](Cc1cccc(F)c1)[C@H](O)CN[C@H]1CC2(CCC2)Oc2c(-c3ccncc3)cc(CC(C)C)cc21 [compound 607] | – |
| – | – | – | – | 7.59 | 8.15 | 161 µL/min/mg | 32 µL/min/mg | 5.18 | CO[C@H](C)C(=O)N[C@@H](Cc1cc(F)cc(F)c1)[C@H](O)CN[C@H]1CC2(CCC2)Oc2c(-c3cncn3C)cc(CC(C)C)cc21 [compound 622] | – |
| – | – | – | – | – | – | 113 µL/min/mg | 34 µL/min/mg | – | COCC(=O)N[C@@H](Cc1cc(F)cc(F)c1)[C@H](O)CN[C@H]1CC2(CCC2)Oc2c1cc(CC(C)C)nc2-c1ccncc1 [compound 682] | pIC50 ([1]; BACE enzyme assay IC50, read-out: BACE1 FRET assay): 8.05; pIC50 ([2]; HEK293, HEK cell-based assay IC50, read-out: HEK cell assay): 7.96; IC50 (CYP2D6; CYP2D6 inhibition): 1.1 µM |
| – | – | – | – | 7.62 | 8.15 | 105 µL/min/mg | 60 µL/min/mg | 6.22 | CO[C@H](C)C(=O)N[C@@H](Cc1cc(F)cc(F)c1)[C@H](O)CN[C@H]1CC2(CCC2)Oc2c(-c3ccncc3)cc(CC(C)(C)F)cc21 [compound 590] | – |
| 0.005 µM | 60 µL/min/mg | 36 µL/min/mg | 6.05 | – | – | – | – | – | C#Cc1cc(C[C@H](NC(=O)CC)[C@H](O)CN[C@H]2CC3(CCC3)Oc3ncc(CC(C)(C)C)cc32)ccc1F [compound 848] | IC50 [2, 6]: 0.019 µM |
| – | – | – | – | 7.92 | 8.22 | 73 µL/min/mg | 29 µL/min/mg | 5.68 | CO[C@H](C)C(=O)N[C@@H](Cc1cc(F)cc(F)c1)[C@H](O)CN[C@H]1CC2(CCC2)Oc2c(-c3ccncc3)cc(CC(C)C)cc21 [compound 587] | – |
| 0.021 µM | 76 µL/min/mg | 41 µL/min/mg | 5.15 | – | – | – | – | – | C#Cc1cccc(C[C@H](NC(=O)[C@@H]2CCCO2)[C@H](O)CN[C@H]2CC3(CCC3)Oc3ncc(CC(C)(C)C)cc32)c1F [compound 913] | IC50 [2, 6]: 0.063 µM |
| – | – | – | – | 7.39 | 7.59 | 85 µL/min/mg | 51 µL/min/mg | 5.70 | CO[C@H](C)C(=O)N[C@@H](Cc1ccc(F)cc1)[C@H](O)CN[C@H]1CC2(CCC2)Oc2c(-c3ccncc3)cc(CC(C)C)cc21 [compound 606] | – |
| – | – | – | – | 7.74 | 7.89 | 215 µL/min/mg | 89 µL/min/mg | 5.57 | CO[C@H](C)C(=O)N[C@@H](Cc1ccccc1)[C@H](O)CN[C@H]1CC2(CCC2)Oc2c(-c3ccncc3)cc(CC(C)C)cc21 [compound 604] | – |
| – | – | – | – | 8.00 | 8.00 | 172 µL/min/mg | 76 µL/min/mg | 5.57 | COCC(=O)N[C@@H](Cc1ccccc1)[C@H](O)CN[C@H]1CC2(CCC2)Oc2c(-c3ccncc3)cc(CC(C)C)cc21 [compound 603] | – |
| – | – | – | – | 7.68 | 8.52 | 220 µL/min/mg | 37 µL/min/mg | 5.40 | COCC(=O)N[C@@H](Cc1cc(F)cc(F)c1)[C@H](O)CN[C@H]1CC2(CCC2)Oc2c(-c3nccn3C)cc(CC(C)C)cc21 [compound 630] | – |
| 0.213 µM | 140 µL/min/mg | 29 µL/min/mg | 5.47 | – | – | – | – | – | CCO[C@@H](C)C(=O)N[C@@H](Cc1ccc2c(c1)OCO2)[C@H](O)CN[C@H]1CC2(CCC2)Oc2ncc(CC(C)(C)C)cc21 [compound 888] | IC50 [2, 6]: 1.55 µM |
| – | – | – | – | 7.19 | 7.82 | 166 µL/min/mg | 57 µL/min/mg | 5.51 | CO[C@H](C)C(=O)N[C@@H](Cc1cncs1)[C@H](O)CN[C@H]1CC2(CCC2)Oc2c(-c3ccncc3)cc(CC(C)(C)C)cc21 [compound 632] | – |
| – | – | – | – | 7.92 | 8.22 | 85 µL/min/mg | 35 µL/min/mg | 5.82 | COCC(=O)N[C@@H](Cc1cccc(C#N)c1)[C@H](O)CN[C@H]1CC2(CCC2)Oc2c(-c3ccncc3)cc(CC(C)C)cc21 [compound 619] | – |
| – | 126 µL/min/mg | 28 µL/min/mg | 5.66 | – | – | – | – | – | CO[C@H](C)C(=O)N[C@@H](Cc1cc(F)cc(F)c1)[C@H](O)CN[C@H]1CC2(CCC2)Oc2c1cc(CC(C)C)cc2-n1ccnc1 [compound 461] | pIC50 ([1]; Table 2, read-out: BACE1 FRET assay): 7.59; pIC50 ([2]; HEK293, Table 2, HEK cells, read-out: HEK cell assay): 7.55 |
| – | – | – | – | 7.13 | 8.00 | 420 µL/min/mg | 44 µL/min/mg | 5.39 | COCC(=O)N[C@@H](Cc1ccccc1)[C@H](O)CN[C@H]1CC2(CCC2)Oc2c(-c3cncn3C)cc(CC(C)C)cc21 [compound 635] | – |
| – | – | – | – | 7.85 | 7.80 | 71 µL/min/mg | 73 µL/min/mg | 5.64 | COCC(=O)N[C@@H](Cc1ccc(F)cc1)[C@H](O)CN[C@H]1CC2(CCC2)Oc2c(-c3ccncc3)cc(CC(C)C)cc21 [compound 605] | – |
| 0.013 µM | 60 µL/min/mg | 35 µL/min/mg | 5.20 | – | – | – | – | – | C#Cc1cccc(C[C@H](NC(=O)[C@@H](C)OC)[C@H](O)CN[C@H]2CC3(CCC3)Oc3ncc(CC(C)(C)C)cc32)c1F [compound 912] | IC50 [2, 6]: 1.19 µM |

| Compound | IC50 [1, 5] | RLM ([3]; rat liver microsomal data) | HLM ([4]; human liver microsomal data) | pIC50 (CYP2D6; [7]) | pIC50 [1, 9] | pIC50 [2, 10] | RLM ([3]; rat liver microsomes) | HLM ([4]; human liver microsomes) | pIC50 (CYP2D6; 2D6 IC50, CYP2D6 inhibition) | also measured |
| --- | --- | --- | --- | --- | --- | --- | --- | --- | --- | --- |
| C#Cc1cccc(C[C@H](NC(=O)COC)[C@H](O)CN[C@H]2C[C@@]3(CCOC3)Oc3ncc(CC(C)(C)C)cc32)c1 [compound 869, N-((1S,2R)-3-(((3S,4′S)-6′-(2,2-dimethylpropyl)-3′,4,4′,5-tetrahydrospiro[furan-3,2′-pyrano[2,3-b]pyridin]-4′-yl)amino)-1-(3-ethynylbenzyl)-2-hydroxypropyl)-2-methoxyacetamide] | 0.006 µM | 55 µL/min/mg | 21 µL/min/mg | 5.02 | – | – | – | – | – | IC50 [2, 6]: 0.01 µM |
